# In patent US11872312B2, “Neuroprotective liposome compositions and methods for treatment of stroke” (The Board of Regents of The University of Texas System, priority 2012, dated 2024):
# How the values were obtained:
# [1] = molecular target: tPA activity on porcine blood clot (Homo sapiens, UniProt P00750); assay: Thrombolytic efficiency of tPA on porcine blood clot in presence of Xe-ELIP or free Xe; conditions: 30 minute incorporation with tPA
# Experimental: Neuroprotective combination therapy may minimize the harmful effects of ischemic neuronal damage. […] The thrombolytic effect of tPA was inhibited after 30 minute incorporation with free Xe (Xe saturated solution).
# [2] = test system: murine embryonic stem cells; assay: LDH release cytotoxicity test in stem cells; conditions: 3 mg ELIP/30 μl gas/ml for 4 hours; H2O2 10 mM for 2 hours
# Experimental: Cells were treated with Xe-reagents (3 mg ELIP/30 μl gas/ml) and control medium for 4 hours, and 2 hours before the end of cultures; 10 mM H2O2 was added.
# The cell viability was determined by assessing the release of LDH.
# Sequence of tPA activity on porcine blood clot (P00750 36-562): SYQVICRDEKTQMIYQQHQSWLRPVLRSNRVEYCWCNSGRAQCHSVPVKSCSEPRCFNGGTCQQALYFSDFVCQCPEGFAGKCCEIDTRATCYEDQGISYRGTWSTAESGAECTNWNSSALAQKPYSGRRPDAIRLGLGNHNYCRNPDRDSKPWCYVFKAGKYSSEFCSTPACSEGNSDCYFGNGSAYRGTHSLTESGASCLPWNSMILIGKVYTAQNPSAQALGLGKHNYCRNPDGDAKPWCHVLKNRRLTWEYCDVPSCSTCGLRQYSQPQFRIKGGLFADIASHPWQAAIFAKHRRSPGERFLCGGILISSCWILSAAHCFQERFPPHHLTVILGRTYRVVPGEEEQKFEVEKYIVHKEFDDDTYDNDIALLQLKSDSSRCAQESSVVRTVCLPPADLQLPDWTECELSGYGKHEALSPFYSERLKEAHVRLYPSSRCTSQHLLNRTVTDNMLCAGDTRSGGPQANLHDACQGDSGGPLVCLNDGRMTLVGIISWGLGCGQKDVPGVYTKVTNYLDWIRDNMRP
compound,measurement,setting,value
[Xe] [free Xe],thrombolytic effect of tPA,[1],inhibited
"OO [H2O2, Hydrogen Peroxide]",LDH release (cytotoxicity),[2],significant LDH release
